From article PMC4574351, “Tubulin cofactors and Arl2 are cage-like chaperones that regulate the soluble αβ-tubulin pool for microtubule dynamics” (eLife, 2015) come the findings set out here.

Where two headings read alike, the source gives them in different places.

In general, Km refers to the substrate concentration at which the rate is half of its maximum.

Assay in all cases: malachite green phosphate release, Michaelis-Menten fit
Common to all, as to type: biochemical

Assay [1] concerns the target T1, TBC-DEG:αβ-tubulin (Saccharomyces cerevisiae, UniProt P39110).
T1 construct: gene CIN4; recombinant yeast TBC-DEG with equimolar double-cycled porcine brain tubulin dimer; tubulin may contribute to GTP turnover; with Protein CIN1; Protein PAC2; Tubulin alpha chain (Sus scrofa brain, isotype mixture); Tubulin beta chain (Sus scrofa brain, isotype mixture)
The note with it: 1 μM TBC-DEG, 1 μM αβ-tubulin; buffer and temperature same; GTPase site may be Arl2 or tubulin; read-out: Km (GTP). An excerpt: malachite green phosphate release, Michaelis-Menten fit on TBC-DEG:αβ-tubulin

Assay [2] has as its target T2, TBC-DEG:αβ-tubulin:TBCC ternary complex (Saccharomyces cerevisiae, UniProt P39110).
T2 construct: gene CIN4; recombinant yeast TBC-DEG and full-length TBCC with equimolar double-cycled porcine brain tubulin dimer; tubulin may contribute to GTP turnover; with Protein CIN1; Protein PAC2; Tubulin-folding cofactor C; Tubulin alpha chain (Sus scrofa brain, isotype mixture); Tubulin beta chain (Sus scrofa brain, isotype mixture)
The note with it: 1 μM each TBC-DEG, buffer and temperature same, read-out: Km (GTP). An excerpt: (§1) malachite green phosphate release, Michaelis-Menten fit on TBC-DEG:αβ-tubulin:TBCC ternary complex

For assay [3], the target named is T3, TBC-DEG:αβ-tubulin:TBCC ternary complex (Saccharomyces cerevisiae, UniProt P39110, Q73L).
T3 construct: gene CIN4; recombinant yeast TBC-DEG and full-length TBCC with equimolar double-cycled porcine brain tubulin dimer; tubulin may contribute to GTP turnover; with Protein CIN1; Protein PAC2; Tubulin-folding cofactor C; Tubulin alpha chain (Sus scrofa brain, isotype mixture); Tubulin beta chain (Sus scrofa brain, isotype mixture)
The note with it: 1 μM each TBC-DEG-Q73L, buffer and temperature same, text prints 387 μM, residual turnover ascribed to tubulin, read-out: Km (GTP).
Source text: as §1

Assay [4] deals with T4, TBC-DEG (TBCD-TBCE-Arl2) (Saccharomyces cerevisiae, UniProt P39110).
T4 construct: gene CIN4; full-length subunits co-expressed in E. coli (polycistronic), 6xHis N-terminal tag; 1:1:1 heterotrimer, ~205 kDa; with Protein CIN1; Protein PAC2
T4 sequence (P39110 1-191): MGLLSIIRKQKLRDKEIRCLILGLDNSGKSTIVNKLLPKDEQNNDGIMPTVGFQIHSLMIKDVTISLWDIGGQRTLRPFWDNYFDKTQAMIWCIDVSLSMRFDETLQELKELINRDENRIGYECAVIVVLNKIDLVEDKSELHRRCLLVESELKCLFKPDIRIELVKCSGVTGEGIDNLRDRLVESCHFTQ
T4 sequence (P40987 1-1014 partner): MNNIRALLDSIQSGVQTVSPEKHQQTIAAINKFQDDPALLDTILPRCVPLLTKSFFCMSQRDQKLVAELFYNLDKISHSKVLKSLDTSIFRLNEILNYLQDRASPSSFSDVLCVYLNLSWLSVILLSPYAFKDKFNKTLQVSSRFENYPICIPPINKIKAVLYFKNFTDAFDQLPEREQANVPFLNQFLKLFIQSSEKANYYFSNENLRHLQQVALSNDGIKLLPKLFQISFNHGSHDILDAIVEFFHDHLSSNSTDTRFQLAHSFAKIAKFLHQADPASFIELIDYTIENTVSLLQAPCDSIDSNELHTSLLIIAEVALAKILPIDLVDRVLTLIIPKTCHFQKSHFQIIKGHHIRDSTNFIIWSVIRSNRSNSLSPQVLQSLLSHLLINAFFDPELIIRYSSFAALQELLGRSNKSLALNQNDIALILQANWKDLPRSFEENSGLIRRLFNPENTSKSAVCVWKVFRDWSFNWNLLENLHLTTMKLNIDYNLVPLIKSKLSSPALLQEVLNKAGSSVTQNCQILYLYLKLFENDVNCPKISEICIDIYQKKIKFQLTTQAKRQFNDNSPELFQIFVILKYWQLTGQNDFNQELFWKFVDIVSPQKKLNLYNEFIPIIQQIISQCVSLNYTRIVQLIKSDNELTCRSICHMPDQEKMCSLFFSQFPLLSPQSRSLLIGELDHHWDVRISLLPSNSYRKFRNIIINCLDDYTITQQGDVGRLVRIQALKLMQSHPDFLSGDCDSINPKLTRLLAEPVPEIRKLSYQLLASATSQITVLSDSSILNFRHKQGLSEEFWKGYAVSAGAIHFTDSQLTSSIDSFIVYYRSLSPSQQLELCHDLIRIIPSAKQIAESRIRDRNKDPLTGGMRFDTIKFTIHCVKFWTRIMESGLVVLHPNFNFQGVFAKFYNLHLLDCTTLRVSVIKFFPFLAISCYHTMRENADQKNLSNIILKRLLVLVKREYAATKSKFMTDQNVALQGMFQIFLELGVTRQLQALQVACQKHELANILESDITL
T4 sequence (P39937 1-518 partner): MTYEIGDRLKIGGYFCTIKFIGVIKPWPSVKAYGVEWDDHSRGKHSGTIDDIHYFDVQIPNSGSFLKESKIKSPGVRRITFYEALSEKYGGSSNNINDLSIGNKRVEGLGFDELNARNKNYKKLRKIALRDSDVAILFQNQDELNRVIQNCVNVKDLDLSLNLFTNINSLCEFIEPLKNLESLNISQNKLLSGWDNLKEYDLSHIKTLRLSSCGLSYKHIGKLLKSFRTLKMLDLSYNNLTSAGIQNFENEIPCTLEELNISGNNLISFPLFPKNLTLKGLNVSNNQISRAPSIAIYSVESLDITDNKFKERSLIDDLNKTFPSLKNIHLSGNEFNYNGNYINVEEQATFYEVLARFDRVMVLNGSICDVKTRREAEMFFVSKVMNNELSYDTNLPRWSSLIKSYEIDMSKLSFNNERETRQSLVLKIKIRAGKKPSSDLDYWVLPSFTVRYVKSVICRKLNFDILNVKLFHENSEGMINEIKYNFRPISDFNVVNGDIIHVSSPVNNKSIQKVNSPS
The note with it: 1 μM TBC-DEG alone; 0-800 μM GTP; 50 mM HEPES, 100 mM KCl; 30 °C, 90 min. An excerpt:
malachite green phosphate release, Michaelis-Menten fit on TBC-DEG (TBCD-TBCE-Arl2)

Assay [5] addresses T5, TBC-DEG:αβ-tubulin:TBCC-Cterm (TBCC-C) (Saccharomyces cerevisiae, UniProt P39110).
T5 construct: gene CIN4; as ternary complex but TBCC beta-helix domain only (residues 100-267, spectrin domain removed); with Protein CIN1; Protein PAC2; Tubulin-folding cofactor C; Tubulin alpha chain (Sus scrofa brain, isotype mixture); Tubulin beta chain (Sus scrofa brain, isotype mixture)
To be noted: 1 μM each TBC-DEG, buffer and temperature same, read-out: Km (GTP). An excerpt: malachite green phosphate release, Michaelis-Menten fit on TBC-DEG:αβ-tubulin:TBCC-Cterm (TBCC-C)

Assay [6] deals with T6, TBC-DEG:TBCC (Saccharomyces cerevisiae, UniProt P39110).
T6 construct: gene CIN4; TBC-DEG mixed with equimolar full-length TBCC (GAP), all recombinant from E. coli; with Protein CIN1; Protein PAC2; Tubulin-folding cofactor C
To be noted: 1 μM TBC-DEG, 1 μM TBCC; buffer and temperature same; read-out: Km (GTP). An excerpt:
malachite green phosphate release, Michaelis-Menten fit on TBC-DEG:TBCC

T6 sequence (P46670 whole entry partner, one chain of several): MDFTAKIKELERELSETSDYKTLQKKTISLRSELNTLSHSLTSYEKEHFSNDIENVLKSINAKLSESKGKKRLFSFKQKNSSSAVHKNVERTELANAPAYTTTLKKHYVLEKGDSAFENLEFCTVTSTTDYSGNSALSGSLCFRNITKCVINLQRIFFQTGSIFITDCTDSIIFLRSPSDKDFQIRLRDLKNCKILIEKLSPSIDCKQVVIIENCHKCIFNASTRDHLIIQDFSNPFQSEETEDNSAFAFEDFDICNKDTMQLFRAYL
T5 sequence (P46670 100-267 partner, one chain of several): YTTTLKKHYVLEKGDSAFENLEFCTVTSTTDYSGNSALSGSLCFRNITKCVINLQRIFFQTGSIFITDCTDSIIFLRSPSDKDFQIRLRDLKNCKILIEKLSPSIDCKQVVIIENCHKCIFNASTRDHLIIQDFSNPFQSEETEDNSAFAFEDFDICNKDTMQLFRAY
T5 sequence (P02550 whole entry partner, one chain of several, the tested form may be a part): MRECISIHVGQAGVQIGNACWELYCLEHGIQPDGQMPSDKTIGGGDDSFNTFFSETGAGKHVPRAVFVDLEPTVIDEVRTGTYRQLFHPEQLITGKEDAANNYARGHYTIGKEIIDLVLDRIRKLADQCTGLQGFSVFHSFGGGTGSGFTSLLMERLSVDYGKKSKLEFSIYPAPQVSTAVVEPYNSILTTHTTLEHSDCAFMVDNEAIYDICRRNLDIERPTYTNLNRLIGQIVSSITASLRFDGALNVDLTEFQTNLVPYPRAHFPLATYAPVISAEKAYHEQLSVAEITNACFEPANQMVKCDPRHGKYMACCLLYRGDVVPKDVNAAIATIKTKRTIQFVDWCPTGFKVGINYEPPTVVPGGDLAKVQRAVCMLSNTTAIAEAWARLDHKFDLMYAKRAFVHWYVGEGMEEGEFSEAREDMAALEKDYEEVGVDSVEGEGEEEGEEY
T5 sequence (P02554 whole entry partner, one chain of several, the tested form may be a part): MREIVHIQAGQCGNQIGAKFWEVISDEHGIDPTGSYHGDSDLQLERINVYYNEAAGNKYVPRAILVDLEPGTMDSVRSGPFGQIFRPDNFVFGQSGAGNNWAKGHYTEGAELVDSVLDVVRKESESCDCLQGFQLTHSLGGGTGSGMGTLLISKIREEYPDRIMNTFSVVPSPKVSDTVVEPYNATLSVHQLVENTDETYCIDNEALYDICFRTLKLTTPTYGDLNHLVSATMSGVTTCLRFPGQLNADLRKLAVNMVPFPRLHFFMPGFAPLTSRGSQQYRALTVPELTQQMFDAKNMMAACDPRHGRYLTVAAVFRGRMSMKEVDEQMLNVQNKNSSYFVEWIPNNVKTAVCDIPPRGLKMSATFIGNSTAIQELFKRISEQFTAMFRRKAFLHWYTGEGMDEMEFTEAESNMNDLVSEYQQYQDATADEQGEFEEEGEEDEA
T1 sequence (P02550 whole entry partner, one chain of several): as the sequence (P02550 whole entry partner, one chain of several, the tested form may be a part) above
T1 sequence (P02554 whole entry partner, one chain of several): as the sequence (P02554 whole entry partner, one chain of several, the tested form may be a part) above
T3 sequence (P39110 whole entry Q73L, one chain of several): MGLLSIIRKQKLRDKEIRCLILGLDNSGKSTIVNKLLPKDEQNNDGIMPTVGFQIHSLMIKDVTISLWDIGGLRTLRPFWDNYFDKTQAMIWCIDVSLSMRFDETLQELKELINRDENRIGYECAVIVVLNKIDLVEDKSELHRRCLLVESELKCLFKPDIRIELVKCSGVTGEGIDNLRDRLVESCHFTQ
T3 sequence (P46670 whole entry partner, one chain of several): as the sequence (P46670 whole entry partner, one chain of several) above
T3 sequence (P02550 whole entry partner, one chain of several): as the sequence (P02550 whole entry partner, one chain of several, the tested form may be a part) above
T3 sequence (P02554 whole entry partner, one chain of several): as the sequence (P02554 whole entry partner, one chain of several, the tested form may be a part) above

In the case of `Nc1nc2c(ncn2[C@@H]2O[C@H](COP(=O)(O)OP(=O)(O)OP(=O)(O)O)[C@@H](O)[C@H]2O)c(=O)[nH]1` [GTP], the Km in assay [1] amounted to 69 ± 12 µM; in assay [2] (TBCC-R186A, arginine finger mutant), 40 ± 10 µM; in assay [2] (TBCC-Δ233-245, αβ-tubulin), 35 ± 8 µM; in assay [2] (Arl2 with minor tubulin contribution) it was 99 ± 10 µM; in assay [3] it was 371 ± 20 µM; in assay [4] it was 400 ± 30 µM. In addition, the figures for the Michaelis-Menten constant (Km) in assay [5] and in assay [6] were 56 ± 7 µM and 94 ± 10 µM, respectively.
